Test results published in patent US10513524B2, “PDE9 inhibitors with imidazo triazinone backbone and imidazo pyrazinone backbone for treatment of peripheral diseases” (H. LUNDBECK A/S, priority 2015, dated 2019).

Legend:
[1] = test system: PDE1; assay: PDE1 inhibition assay; assay type: biochemical; conditions: 15 nM tritium labelled cAMP, SPA beads, 1 h at room temperature
Method: Reactions were initiated by addition of the cyclic nucleotide substrate, and reactions were allowed to proceed for 1 h at room temperature before being terminated through mixing with 20 μL (0.2 mg) yttrium silicate SPA beads (PerkinElmer).

[2] = Blood Brain Barrier penetration (brain-to-plasma distribution); assay type: in vivo; conditions: male CD mice, subcutaneous 10 mg/kg; for Kp at 0.5 h / Kp at 2 h: mouse, brain/plasma, sc; for Brain concentration after 30 minutes / Plasma concentration after 30 minutes / Kp at 0.5 h: 30 min; for Kp at 0.5 h: read-out: Brain/Plasma ratio after 30 minutes; for Brain concentration after 120 minutes / Plasma concentration after 120 minutes / Kp at 2 h: 120 min; for Kp at 2 h: read-out: Brain/Plasma ratio after 120 minutes
Method: Male CD mice (20-24 g) were housed pair-wise with free access to food and water for an acclimatization period of 3-7 days before initiation of experiments. Prior to dosing the animals were fasted overnight. During testing, mice were kept in individual cages. The brain-to-plasma distribution was assessed 30 minutes and 2 hours after subcutaneous administration of the test compound at a dose of 10 mg/kg (n=3 at each time point). The dose volume was 10 ml/kg using appropriate vehicle to solubilize each test compound. At the time of sampling, animals were anesthetized with isoflurane and a systemic blood sample collected by cardiac puncture into vacutainers containing sodium heparin as anti-coagulant. The blood was centrifuged at 3500 rpm for 10 minutes at 4° C. to obtain plasma. Following decapitation, brains were dissected out and transferred to pre-weighed vessels followed by tissue weights determination. Plasma and brains were stored at −80° C. until quantitative bioanalysis by LC-MS/MS. Results are expressed as ng/ml for plasma and ng/g for brain samples.

C[C@@H]1CN(Cc2ncccn2)C[C@H]1c1nc2c(cnn2C2CCOCC2)c(=O)[nH]1 (single isomer, unassigned) [Reference compound, reference compound] gave an IC50 [1] of 2.5 µM.

For O=c1[nH]c(CN2CC(OCc3ccc(F)cc3)C2)nn2c(C3CCOCC3)ncc12 [Compound (P4)], the “Brain concentration after 30 minutes” value [2] was 30 min.: 125 ng/mL, the “Plasma concentration after 30 minutes” value [2] was 30 min.: 3380 ng/mL and the “Brain concentration after 120 minutes” value [2] was 120 min.: 15 ng/mL. The “Plasma concentration after 120 minutes” value [2] was 120 min. 352 ng/mL.

With O=c1[nH]c(CN2CC(Oc3ccncc3)C2)cn2c(-c3ccc(F)cc3)ncc12 [Compound (P1), 3-(4-fluorophenyl)-6-((3-(pyridin-4-yloxy)azetidin-1-yl)methyl)imidazo[1,5-a]pyrazin-8(7H)-one] the IC50 [1] was 45.1 µM, the “Brain concentration after 30 minutes” value [2] was 30 min.: 42 ng/mL and the “Plasma concentration after 30 minutes” value [2] was 30 min.: 719 ng/mL. For the same compound, the “Brain concentration after 120 minutes” value [2] was 120 min.: 7 ng/mL, the “Plasma concentration after 120 minutes” value [2] was 120 min.: 86 ng/mL and the Kp at 0.5 h [2] was 0.06. It also gave a Kp at 2 h [2] of 0.08.

In the case of C[C@@H]1CN(Cc2ncccn2)C[C@H]1c1cn2c(C3CCOCC3)ncc2c(=O)[nH]1 (single isomer, unassigned) [Compound (P3, enantiomer 1)], the IC50 [1] is reported as 3 µM, the “Brain concentration after 30 minutes” value [2] is reported as 30 min.: 67 ng/mL and the “Plasma concentration after 30 minutes” value [2] is reported as 30 min.: 1620 ng/mL. For the same compound, the “Brain concentration after 120 minutes” value [2] was 120 min.: 7 ng/mL, the “Plasma concentration after 120 minutes” value [2] was 120 min.: 226 ng/mL and the Kp at 0.5 h [2] was 0.04. For the same compound, the Kp at 2 h [2] was 0.03.

For O=c1[nH]c(CN2CC(Oc3cccnc3)C2)cn2c(C3CCOCC3)ncc12 [Compound (P2), 6-[3-(pyridin-3-yloxy)-azetidin-1-ylmethyl]-3-(tetrahydropyran-4-yl)-7H-imidazo[1,5-a]pyrazin-8-one], the IC50 [1] was 5.28 µM, the “Brain concentration after 30 minutes” value [2] was “Below detection” and the “Plasma concentration after 30 minutes” value [2] was 30 min.: 715 ng/mL. The “Brain concentration after 120 minutes” value [2] was “Below detection” and the “Plasma concentration after 120 minutes” value [2] was 120 min.: 11 ng/mL.
